Source: paper PMC10669220, “In Vitro α-Glucosidase and α-Amylase Inhibition, Cytotoxicity and Free Radical Scavenging Profiling of the 6-Halogeno and Mixed 6,8-Dihalogenated 2-Aryl-4-methyl-1,2-dihydroquinazoline 3-Oxides” (Antioxidants, 2023)

Columns and labels:
[1] = biological target: superoxide dismutase (SOD); experiment: Superoxide dismutase (SOD) inhibitory assay (SOD assay kit-WST); assay type: biochemical; conditions: duplicate; 1-50 µM; 25 °C, 30 min; read-out: IC50 SOD inhibition
Method: The antioxidant activity of the compounds 3a, 3c, 3f, 3i, 3l, 3n and 3p against superoxide radicals was assessed via enzymatic assay in vitro using the SOD assay kit-WST according to the manufacturer’s instructions (Sigma-Aldrich®). The reaction mixtures in the SOD kit were combined with 20 μL of working solution of the samples in a 96-well plate. Plates were gently shaken and then incubated at 25 °C for 30 min. The reference positive control, diphenyleneiodonium (DPI), and the compounds were tested at 01, 5, 10, 25 and 50 µM in duplicates. The inhibition activity of SOD on the reaction of […] generated the superoxide with a tetrazolium salt, which was then determined by measuring the absorbance of the mixtures at a wavelength of 450 nm using an Elisa plate reader (Varioskan Flash, ThermoFisher Scientific, Vantaa, Finland). The SOD activity values obtained used to calculate the percentage of inhibition. % SOD activity=ODx− ODy/ODx ×100% where ODx is the absorbance of the blank (untreated SOD) and ODy is the absorbance of the sample (treated SOD). All tests were performed in duplicate.

[2] = DPPH radical scavenging assay; conditions: mean ± SD; 45 min in the dark; 512 nm
Outline: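 Compounds (0–50 µM, in DMSO) were mixed with 0.20 mM DPPH in methanol and kept in the dark for 45 min, with absorbance read at 512 nm. IC50 values were obtained by nonlinear regression of triplicate averaged readings.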

[3] = biological target: T1, α-Glucosidase type 1 from baker's yeast (Saccharomyces cerevisiae, UniProt P53341); experiment: biochemical; conditions: IC50 α-Glucosidase, mean ± SD, triplicate; tested at 1, 5, 10, 25, 50 µM
T1 construct: purchased Sigma Aldrich (Pty) Ltd. G5003

[4] = tested on: nitric oxide synthase (NOS); experiment: Kinetic study on inhibitory activity of NOS; assay type: biochemical; conditions: seven concentrations 1-10.0 μM; Figure 3; read-out: IC50 NOS inhibition (kinetic study)
Method: A nitric oxide synthase (NOS) assay was performed following the procedure recommended by the manufacturer as outlined in the screening kit (Catalogue No. EINO-100; EnzyChrom). Various concentrations (1, 2.5, 4.0, 5.5, 7.0, 8.5 and 10.0 µM) of the compounds 3i and the reference standard, DPI, were prepared. The enzyme solution (12.5 U/mL NOS, 10 uL), assay buffer (25 µL) and test samples (5 µL) were incubated at room temperature for 15 min. After pre-incubation, 10 µL of reaction mix was added and incubated at 37 °C for 60 min. A 200 µL quantity of NO detection reagent was added, the detection reaction was run at 37 °C for 60 min, and absorbance was determined at a wavelength of 540 nm using an Elisa plate reader (Varioskan Flash, ThermoFisher Scientific, Vantaa, Finland). The average of three readings was used to calculate the NOS percentage inhibition using the formula in Section 2.6.3

[5] = tested on: breast cancer (MCF-7) cell line; experiment: MTT cytotoxicity assay, MCF-7; conditions: for Cell viability percentage, MCF-7: Table S2
[6] = tested on: lung cancer (A549) cell line; experiment: MTT cytotoxicity assay, A549; conditions: for Cell viability percentage, A549: Table S3
Method: Cells were cultured in sterile Dulbecco’s Minimal Essential Medium (DMEM, Gibco) supplemented with 10% fetal bovine serum (FBS) and 1% penicillin-streptomycin solution. […] Cell counting was carried out using a handheld automated cell counter (Scapter 3.0™, Merck, Burlington, MA, USA) and seeded (1 × 10^4 cells/well) into a 96-well plate. After 24 h, the cells were treated with different concentrations (1, 5, 10, 25 and 50 µM) of the test compounds and reference standards prepared in DMEM. The MTT solution (20 μL) prepared in PBS (5 mg/mL) was added to all the wells, and the plates were incubated for 4 h, followed by 1 h incubation with 100 µL of dimethyl sulfoxide (DMSO) to dissolve the formazan crystals. Untreated cells and 5% DMSO were included in the experiment as negative controls. All experiments were performed in triplicate. The plates were read at 570 nm at a reference wavelength of 630 nm using an ELISA plate reader (Varioskan Flash, ThermoFisher Scientific, Vantaa, Finland). The percentage of cell viability was calculated using the following formula, Cell viability %=At/Ab×100 where At represents the absorbance value of test compound and Ab the absorbance value of the blank. […] The data were expressed as means ± SD.

human α-amylase = biological target: T2, human α-amylase (Homo sapiens, UniProt P04746); experiment: α-amylase inhibitor screening kit assay; assay type: biochemical; conditions: mean ± SD, triplicate; tested at 1, 5, 10, 25, 50 µM
T2 construct: purchased Abcam ab283391
T2 sequence (P04746 16-511): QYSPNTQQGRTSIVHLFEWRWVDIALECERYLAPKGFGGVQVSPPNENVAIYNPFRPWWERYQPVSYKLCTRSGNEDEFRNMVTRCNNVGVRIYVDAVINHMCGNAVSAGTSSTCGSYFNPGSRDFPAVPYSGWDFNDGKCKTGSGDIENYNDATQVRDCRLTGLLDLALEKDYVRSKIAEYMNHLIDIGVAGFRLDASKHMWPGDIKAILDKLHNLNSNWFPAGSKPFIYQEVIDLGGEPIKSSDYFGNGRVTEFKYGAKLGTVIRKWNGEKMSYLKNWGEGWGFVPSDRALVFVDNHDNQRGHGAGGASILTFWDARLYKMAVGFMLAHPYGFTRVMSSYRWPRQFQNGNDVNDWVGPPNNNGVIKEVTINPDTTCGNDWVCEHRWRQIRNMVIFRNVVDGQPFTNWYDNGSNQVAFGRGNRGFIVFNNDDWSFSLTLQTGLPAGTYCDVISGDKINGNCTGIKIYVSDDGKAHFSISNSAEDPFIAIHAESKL
Method: The α-amylase assay was performed in triplicate, using a 96-well plate following the procedure recommended by the manufacturer as outlined in the α-amylase inhibitor Screening Kit (Catalogue No. ab283391; Abcam). […] The average values obtained from the absorbance readings were used to determine the IC50 and standard deviation values in GraphPad prism from nonlinear regression dose–response curves.

T1 sequence (P53341 whole entry): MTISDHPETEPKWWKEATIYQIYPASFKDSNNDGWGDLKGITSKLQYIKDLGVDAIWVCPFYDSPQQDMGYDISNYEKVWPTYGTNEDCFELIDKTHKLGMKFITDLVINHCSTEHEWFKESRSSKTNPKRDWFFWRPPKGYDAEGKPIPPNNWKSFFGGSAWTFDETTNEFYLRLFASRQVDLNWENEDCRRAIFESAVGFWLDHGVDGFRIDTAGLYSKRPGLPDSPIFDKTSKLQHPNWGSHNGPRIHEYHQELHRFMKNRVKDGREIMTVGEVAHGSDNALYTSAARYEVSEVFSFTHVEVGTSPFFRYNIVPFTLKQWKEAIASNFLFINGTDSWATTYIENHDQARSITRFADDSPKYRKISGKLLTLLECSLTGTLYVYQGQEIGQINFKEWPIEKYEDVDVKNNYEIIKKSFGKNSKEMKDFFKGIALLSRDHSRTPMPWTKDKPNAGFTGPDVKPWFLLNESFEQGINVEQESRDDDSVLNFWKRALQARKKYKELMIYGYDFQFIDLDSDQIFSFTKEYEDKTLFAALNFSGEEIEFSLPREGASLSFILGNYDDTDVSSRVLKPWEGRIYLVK

CC1=[N+]([O-])C(c2ccccc2)Nc2c(I)cc(Br)cc21 (centres unmarked) [Compound 3i]
IC50 [1]: 15 ± 0.14 µM | IC50 [2]: 1.04 ± 0.077 µM | IC50 [3]: 1.01 ± 0.05 µM | IC50 [4]: 6.75 ± 0.002 µM | Cell viability percentage, MCF-7 ([5]; Conc. 1 (µM per method)): 24,1184% | Cell viability percentage, MCF-7 ([5]; Conc. 5 (µM per method)): 22,006% | Cell viability percentage, MCF-7 ([5]; Conc. 10 (µM per method)): 22,1058% | Cell viability percentage, MCF-7 ([5]; Conc. 25 (µM per method)): 19,5775% | Cell viability percentage, MCF-7 ([5]; Conc. 50 (µM per method)): 18,1803% | IC50 ([5]; Homo sapiens, MCF7, read-out: IC50 MCF-7): 15.43 ± 0.06 µM | Cell viability percentage, A549 ([6]; Conc. 1 (µM per method)): 84,0927% | Cell viability percentage, A549 ([6]; Conc. 5 (µM per method)): 69,8954% | Cell viability percentage, A549 ([6]; Conc. 10 (µM per method)): 61,098% | Cell viability percentage, A549 ([6]; Conc. 25 (µM per method)): 43,9195% | Cell viability percentage, A549 ([6]; Conc. 50 (µM per method)): 23,0847% | IC50 ([6]; Homo sapiens, A549, read-out: IC50 A549): 16.85 ± 0.05 µM | IC50 (human α-amylase): 1.18 ± 0.06 µM
